According to PMC11589570, “Critical assessment of LC3/GABARAP ligands used for degrader development and ligandability of LC3/GABARAP binding pockets” (Nature Communications, 2024):
Like-named read-outs stand apart in the source and are kept apart here.

Columns and labels:
[1] = target: T1, NanoLuc-fusion full-length LC3A (Homo sapiens, UniProt Q9H492); test: NanoBRET cellular target engagement assay in HEK293T cells; format: cell-based; conditions: LC3A; 1 µM tracer; compound 4 for tracer 16, compound 3 for tracer 17
T1 construct: a fluorescent donor (in this case full length LC3A and LC3B); expressed in transfected cells; host or cells: HEK293T (ATCC; CRL-11268)
Procedure: (§1) NanoBRET cellular target engagement assay: Constructs contained the cDNA of full-length LC3A and LC3B cloned in frame with an N-terminal NanoLuc-fusion. Plasmids were transfected into HEK293T (ATCC; CRL-11268) cells using FuGENE HD (Promega, E2312) and proteins were allowed to express for 20 h. 10O5 and 8F20-based tracers were titrated to the protein as depicted in Supplementary Fig. 4d. For competition experiments, 1 µM of the tracers was pipetted into white 384-well plates (Greiner 781 207) using an Echo 550 acoustic dispenser (Labcyte) containing LC3A/LC3B expressing transfected cells at a density of 2.5 × 10^5 cells/mL in Opti-MEM without phenol red (Life Technologies). The system was allowed to equilibrate for 2 h at 37 °C and 5% CO2 prior to BRET measurements. To measure BRET, NanoBRET NanoGlo Substrate + Extracellular NanoLuc Inhibitor (Promega, N2540) was added as per the manufacturer’s protocol, and filtered luminescence was measured on a PHERAstar plate reader (BMG Labtech) equipped with a luminescence filter pair (450 nm BP filter (donor) and 610 nm LP filter (acceptor)). Competitive displacement data were then plotted using GraphPad Prism 9.3 software using a normalized 3-parameter curve fit. A detailed step-by-step protocol for this assay is described in Schwalm..

[2] = target: T2, NanoLuc-fusion full-length LC3B (Homo sapiens, UniProt Q9GZQ8); test: as above; format: cell-based; conditions: LC3B; 1 µM tracer; compound 4 for tracer 16, compound 3 for tracer 17
T2 construct: a fluorescent donor (in this case full length LC3A and LC3B); expressed in transfected cells; host or cells: HEK293T (ATCC; CRL-11268)
Procedure: as §1

LC3B = LC3B (Homo sapiens, UniProt Q9GZQ8); conditions: for CSP: LC3B:ligand molar ratio 1:2; for 3D Mapping code: molar ratio 1:2

## O=C1Nc2ccc(I)cc2C1=Cc1cc(Br)c(O)c(Br)c1 [compound 4]
[1]
  NanoBRET signal / tracer displacement: No displacement
[2]
  NanoBRET signal / tracer displacement: No displacement
LC3B
  Kd: ≥ 200 µM
LC3B; I34 HN resonance, molar ratio 10O5:LC3B 1
  CSP induced: 0.019
LC3B; I34 HN resonance, molar ratio 10O5:LC3B 2
  CSP induced: 0.03102
LC3B; I34 HN resonance, molar ratio 10O5:LC3B 8
  CSP induced: 0.06113
LC3B; K51 HN resonance, molar ratio 10O5:LC3B 1
  CSP induced: 0.02725
LC3B; K51 HN resonance, molar ratio 10O5:LC3B 2
  CSP induced: 0.0413
LC3B; K51 HN resonance, molar ratio 10O5:LC3B 8
  CSP induced: 0.0854
LC3B; L82 HN resonance, molar ratio 10O5:LC3B 1
  CSP induced: 0.01304
LC3B; L82 HN resonance, molar ratio 10O5:LC3B 2
  CSP induced: 0.03131
LC3B; L82 HN resonance, molar ratio 10O5:LC3B 8
  CSP induced: 0.0642
LC3B; LC3B residue A75
  CSP: 0.00342 ppm
LC3B; LC3B residue A78
  CSP: 0.00654 ppm
LC3B; LC3B residue A114
  CSP: 0.006 ppm
LC3B; LC3B residue D19
  CSP: 0.011 ppm
LC3B; LC3B residue D48
  CSP: 0.026 ppm
  3D Mapping code: Light green (intermediate (SD < CSP <2xSD))
LC3B; LC3B residue D56
  CSP: 0.017 ppm
  3D Mapping code: Light green (intermediate (SD < CSP <2xSD))
LC3B; LC3B residue D104
  CSP: 0.00224 ppm
LC3B; LC3B residue D106
  CSP: 0.00462 ppm
LC3B; LC3B residue E14
  CSP: 0.00184 ppm
LC3B; LC3B residue E18
  CSP: 0.00544 ppm
LC3B; LC3B residue E25
  CSP: 0.018 ppm
  3D Mapping code: Light green (intermediate (SD < CSP <2xSD))
LC3B; LC3B residue E36
  CSP: 0.023 ppm
  3D Mapping code: Light green (intermediate (SD < CSP <2xSD))
LC3B; LC3B residue E41
  CSP: 0.002 ppm
LC3B; LC3B residue E62
  CSP: 0.016 ppm
  3D Mapping code: Light green (intermediate (SD < CSP <2xSD))
LC3B; LC3B residue E97
  CSP: 0.013 ppm
LC3B; LC3B residue E100
  CSP: 0.015 ppm
LC3B; LC3B residue E102
  CSP: 0.00152 ppm
LC3B; LC3B residue E105
  CSP: 0.00355 ppm
LC3B; LC3B residue E117
  CSP: 0.010 ppm
LC3B; LC3B residue F07
  CSP: 0.011 ppm
LC3B; LC3B residue F13
  CSP: 0.00221 ppm
LC3B; LC3B residue F52
  CSP: 0.070 ppm
  3D Mapping code: Orange (strong (2xSD <CSP))
LC3B; LC3B residue F108
  CSP: 0.00424 ppm
LC3B; LC3B residue F119
  CSP: 0.003 ppm
LC3B; LC3B residue G40, estimated
  CSP: 0.006 ppm
LC3B; LC3B residue G85
  3D Mapping code: Light green (intermediate (SD < CSP <2xSD))
LC3B; LC3B residue G107
  CSP: 0.005 ppm
LC3B; LC3B residue H27
  CSP: 0.018 ppm
  3D Mapping code: Light green (intermediate (SD < CSP <2xSD))
LC3B; LC3B residue H57
  CSP: 0.022 ppm
  3D Mapping code: Light green (intermediate (SD < CSP <2xSD))
LC3B; LC3B residue H86
  3D Mapping code: Light green (intermediate (SD < CSP <2xSD))
LC3B; LC3B residue I23
  CSP: 0.018 ppm
  3D Mapping code: Light green (intermediate (SD < CSP <2xSD))
LC3B; LC3B residue I31
  CSP: 0.020 ppm
  3D Mapping code: Light green (intermediate (SD < CSP <2xSD))
LC3B; LC3B residue I34
  CSP: 0.026 ppm
  3D Mapping code: Light green (intermediate (SD < CSP <2xSD))
LC3B; LC3B residue I35
  CSP: 0.011 ppm
LC3B; LC3B residue I64
  CSP: 0.035 ppm
  3D Mapping code: Orange (strong (2xSD <CSP))
LC3B; LC3B residue I66
  CSP: 0.00535 ppm
LC3B; LC3B residue I67
  CSP: 0.022 ppm
  3D Mapping code: Light green (intermediate (SD < CSP <2xSD))
LC3B; LC3B residue I95
  3D Mapping code: Light green (intermediate (SD < CSP <2xSD))
LC3B; LC3B residue K08
  CSP: 0.006 ppm
LC3B; LC3B residue K30
  CSP: 0.022 ppm
  3D Mapping code: Light green (intermediate (SD < CSP <2xSD))
LC3B; LC3B residue K39
  CSP: 0.008 ppm
LC3B; LC3B residue K42
  CSP: 0.00565 ppm
LC3B; LC3B residue K49
  CSP: 0.017 ppm
  3D Mapping code: Light green (intermediate (SD < CSP <2xSD))
LC3B; LC3B residue K51
  CSP: 0.037 ppm
  3D Mapping code: Orange (strong (2xSD <CSP))
LC3B; LC3B residue K65
  CSP: 0.004 ppm
LC3B; LC3B residue K103
  CSP: 0.011 ppm
LC3B; LC3B residue L22
  CSP: 0.009 ppm
LC3B; LC3B residue L44
  CSP: 0.00371 ppm
LC3B; LC3B residue L47
  CSP: 0.022 ppm
  3D Mapping code: Light green (intermediate (SD < CSP <2xSD))
LC3B; LC3B residue L53
  CSP: 0.052 ppm
  3D Mapping code: Orange (strong (2xSD <CSP))
LC3B; LC3B residue L63
  CSP: 0.011 ppm
LC3B; LC3B residue L71
  CSP: 0.011 ppm
LC3B; LC3B residue L73
  CSP: 0.011 ppm
LC3B; LC3B residue L81
  3D Mapping code: Light green (intermediate (SD < CSP <2xSD))
LC3B; LC3B residue L82
  3D Mapping code: Light green (intermediate (SD < CSP <2xSD))
LC3B; LC3B residue L109
  CSP: 0.00462 ppm
